According to patent publication EP2992885A2, “METHOD FOR INHIBITING A LIVER DISEASE” (priority 2014, dated 2016):
Where a name gives a salt, the structure may show the parent alone.

Key:
ROCK II = ROCK II expression in HepG2 cells; type: cell-based
Protocol: HepG2 cells were treated with various concentrations of drugs for 24 hours. Reactions were terminated by washing twice with cold PBS, and the cells were then harvested. Proteins in the whole-cell lysate were homogenized in an ice-cold lysis buffer and a protease inhibitor (Sigma-Aldrich, St. Louis, MO, U.S.A.). The homogenate was centrifuged at 90, 000 g for 15 minutes at 4°C, and supernatant was recovered as the total cellular protein. Cytosolic and membrane fractions of HepG2 cells were prepared using a CNM (Cytosol Nuclear Membrane) compartment protein extraction kit (BioChain Institute Inc., Hayward, CA, U.S.A.) according to the manufacturer's instructions. All of the fractionated protein solutions were stored at -80°C until analysis. To measure the expression levels of proteins by drugs, the total cell protein was extracted after incubation with treatments for 24 hours and then Western blotting analysis was performed as described previously.
To confirm that RhoA antagonist C3 exoenzyme (5 µg/ml) and ROCK antagonist Y27632 (10 µM), dissolved in 10% popyleneglycol, can inactivate_the expression of ROCK II, they were added to cells in culture for 24 hours, respectively, to measure the expression of ROCK II and related expressions of PPARγ and ABCA-1 in HepG2 cells.

mice fed with HFD = assay: HFD-fed mice, 8 weeks: serum and liver lipid levels, body weight, food intake; type: in vivo, C57BL/6J male mice; design: TG / Tot. chol. / HDL chol. / LDL chol.: unit not given here; conditions: for HDL chol. / LDL chol. / TG / Tot. chol.: Table 2, HFD mice, unit not given in Table 2 (Table 1 gives mg/dl); for HDL (HDL cholesterol) / LDL (LDL cholesterol) / TG of liver (Triacylglycerol) / TG in serum (Triacylglycerol): HFD for 8 weeks; for TG in serum (Triacylglycerol): means±SE
Protocol: (§1) During the 2 month experiments, mice fasted for one night before the experiment was changed from a standard diet (STD) to a HFD and then the mice were randomly divided into 5 groups, including 2 control and 3 treatment groups. Six mice were used in each group. The control mice received either STD or HFD and the protection group was fed HFD with KMUP-1 HCl (2.5 and 5 mg/kg/day), simvastatin (5 mg/kg/day) or a target drug administered by gavage to assess weight gain followed by biochemical analysis. Liver from the protection group supplemented with KMUP-1 HCl (1 mg/kg/day) were used to determine the HMG CoA reductase expression.
Within 2 months, the 3 day food intake average for each animal was measured. The weight gain and plasma lipid levels of each group were determined and compared to the non-treatment control group. […] Agents used in the assays were obtained from Merck & Co. (Kenilworth, NJ, U.S.A.). Triglyceride (TG), total cholesterol, HDL cholesterol and LDL cholesterol in mouse serum were measured by methods used in the clinic. To measure the hepatic TG, isolated liver were cut into small chips.

HMG CoA reductase = assay: HFD-induced HMG CoA reductase expression in liver, 8 weeks; type: in vivo, mice; conditions: HFD 8 weeks; KMUP-1 HCl 2.5, 5 mg/kg; simvastatin 5 mg/kg, by gavage
Protocol: as §1, with “Liver from the protection group supplemented with KMUP-1 HCl (1 mg/kg/day) were used to determine the HMG CoA reductase expression.” left out
The obtained protein extract was boiled to a ratio of 4:1 with a sample buffer (Tris 100 mM, pH 6.8, glycerol 20%, SDS 4% and bromophenol blue 0.2%).
The blot was then incubated with anti-mouse or anti-goat IgG linked to alkaline phosphatase (1:1000) for 1 hour.

With “8-(p-chloro-phenylthio)guanosine-3,5-monophosphorothioate [Rp-8-pCPT-cGMPS]” as the compound, how does the “ROCK II expression (Fig. 24B)” value (ROCK II; HepG2, 10µM cGMP antagonist alone) read?
Its value is “increased”.

Which results are given for `Cn1c(=O)c2c(ncn2CCN2CCN(c3ccccc3Cl)CC2)n(C)c1=O` [KMUP-1 HCl, 7-[2-[4-(2-chlorophenyl)piperazinyl]ethyl]-1,3-dimethylxanthine HCl complex]?
HDL chol. (mice fed with HFD; Dose 2.5 mg/kg): 103.6± 4.2; LDL chol. (mice fed with HFD; Dose 2.5 mg/kg): 14.2± 1.4; TG (mice fed with HFD; Dose 2.5 mg/kg): 74.5± 5.1; Tot. chol. (mice fed with HFD; Dose 2.5 mg/kg): 133± 5.1; HDL chol. (mice fed with HFD; Dose 5 mg/kg): 118.3± 5.7; LDL chol. (mice fed with HFD; Dose 5 mg/kg): 14.2± 2.2; TG (mice fed with HFD; Dose 5 mg/kg): 72.67± 4.7; Tot. chol. (mice fed with HFD; Dose 5 mg/kg): 125.5± 9.8; HFD-induced downregulation of HMG CoA reductase expression in liver (HMG CoA reductase): significantly reversed

`Cn1c(=O)c2c(ncn2CCN2CCN(c3ccccc3Cl)CC2)n(C)c1=O` [KMUP-1, 7-[2-[4-(2-chlorophenyl)piperazinyl]ethyl]-1,3-dimethyl xanthine] was tested. Which “HDL (HDL cholesterol)” value (mice fed with HFD; 2.5mg/kg by gavage) did it give?
The value was 103.6 ± 4.2 mg/dL.

And the “LDL (LDL cholesterol)” value (mice fed with HFD; 2.5mg/kg by gavage)?
Its value is 14.2 ± 1.4 mg/dL.

And the “TG of liver (Triacylglycerol)” value (mice fed with HFD; 2.5mg/kg by gavage)?
Its value is 28.4 ± 3.6 mg/dL.

And the “TG in serum (Triacylglycerol)” value (mice fed with HFD; 2.5mg/kg by gavage)?
Its value is 74.5 ± 5.1 mg/dL.

What about the “HDL (HDL cholesterol)” value (mice fed with HFD; 5mg/kg by gavage) of the same compound?
Its value is 118.3 ± 5.7 mg/dL.

And the “LDL (LDL cholesterol)” value (mice fed with HFD; 5mg/kg by gavage)?
The value was 14.2 ± 2.2 mg/dL.

And the “TG of liver (Triacylglycerol)” value (mice fed with HFD; 5mg/kg by gavage)?
Its value is 26.12 ± 3.1 mg/dL.

And the “TG in serum (Triacylglycerol)” value (mice fed with HFD; 5mg/kg by gavage)?
Its value is 72.7 ± 4.7 mg/dL.

`C[C@@H](N)[C@H]1CC[C@H](C(=O)Nc2ccncc2)CC1` [Y27632] was tested. Which “ROCK II expression (Fig. 24A)” value (ROCK II; HepG2, 24 hours, C3 exoenzyme 5 µg/ml, Y27632 10 µM) did it give?
Its value is “reduced”.

What does the source list for `CCC(C)(C)C(=O)O[C@H]1C[C@@H](C)C=C2C=C[C@H](C)[C@H](CC[C@@H]3C[C@@H](O)CC(=O)O3)[C@H]21` [simvastatin, reference compound]?
HDL (HDL cholesterol) (mice fed with HFD; 5mg/kg by gavage): 103.2 ± 2.5 mg/dL; LDL (LDL cholesterol) (mice fed with HFD; 5mg/kg by gavage): 15.3 ± 1.3 mg/dL; TG of liver (Triacylglycerol) (mice fed with HFD; 5mg/kg by gavage): 35.5±2.** mg/dl; TG in serum (Triacylglycerol) (mice fed with HFD; 5mg/kg by gavage): 82.7 ± 6.3 mg/dL
